# Measured values: PMC6302903, “Protein and Chemical Determinants of BL-1249 Action and Selectivity for K2P Channels” (ACS Chemical Neuroscience, 2018)
# What was measured:
# TREK-1/AAK_T = TREK-1/AAK_T (Mus musculus, UniProt P97438); assay: TEVC of C-terminal tail swap chimera TREK-1/AAK_T; format: cell-based; conditions: Xenopus oocytes
# Text: Given the importance of the C-terminal tail for the BL-1249 response and the fact that the C-terminal tails of K2P2.1(TREK-1) and K2P4.1(TRAAK) vary substantially (17.6% sequence similarity, 13.5% identity), we wondered if these differences could contribute to the different potencies observed in K2P2.1(TREK-1) and K2P4.1(TRAAK) BL-1249 responses. To test this possibility, we made chimeras that swapped the C-terminal tail between K2P2.1(TREK-1) and K2P4.1(TRAAK), TREK-1/AAK_T and TRAAK/EK_T. […] Despite this modest change, it is clear that the C-terminal tail alone is not sufficient to endow the K2P4.1(TRAAK) core with a K2P2.1(TREK-1)-like BL-1249 response. […]
# (§1) Xenopus laevis oocytes were harvested in accordance with UCSF IACUC protocol AN129690 and digested in calcium-free ND-96 (96 mM NaCl, 2 mM KCl, 3.8 mM MgCl2) immediately following harvest, as previously described.[6],[10] […] Defolliculated stage V–VI oocytes were injected with 0.2–6.0 ng of mRNA in 50 nL, and currents were recorded 24–48 h after injection. mRNA was synthesized from plasmid DNA using mMessage mMachine Kit (T7 promoter, Ambion, Life Technologies) and purified using RNEasy Kit (Qiagen). […] Once stabilized basal currents were recorded, compounds were perfused at various concentrations in standard ND96 and currents were allowed to increase to stabilization before recording final current. […]
# K2P18.1(TRESK) = tested on: K2P18.1(TRESK); set-up: method as in PMID 27641472; conditions: cited from earlier work
# K2P4.1(TRAAK) = target: T1, K2P4.1(TRAAK) (Mus musculus, UniProt O88454); assay: TEVC of K2P4.1(TRAAK) in Xenopus oocytes; format: cell-based
# T1 construct: expressed in transfected cells; host or cells: Xenopus laevis oocytes injected with mRNA made from pGEMHE/pMO
# T1 sequence (O88454 1-398): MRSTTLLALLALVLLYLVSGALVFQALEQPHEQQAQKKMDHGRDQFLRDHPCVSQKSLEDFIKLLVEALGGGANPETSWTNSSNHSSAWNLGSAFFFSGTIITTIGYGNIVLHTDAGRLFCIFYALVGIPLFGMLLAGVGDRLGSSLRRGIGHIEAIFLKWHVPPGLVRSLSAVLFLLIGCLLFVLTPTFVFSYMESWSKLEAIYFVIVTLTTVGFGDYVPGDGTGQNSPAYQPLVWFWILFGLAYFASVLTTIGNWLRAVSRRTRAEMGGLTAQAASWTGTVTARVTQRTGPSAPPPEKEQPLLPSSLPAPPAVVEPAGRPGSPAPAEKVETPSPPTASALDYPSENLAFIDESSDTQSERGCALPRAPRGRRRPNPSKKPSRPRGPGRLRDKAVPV
# Text: Constructs for murine K2P channels, including K2P2.1(TREK-1) (Gene ID 16526), K2P10.1(TREK-2) (Gene ID 72258), K2P4.1(TRAAK) (Gene ID 16528), K2P5.1(TASK-2) (Gene ID 16529), K2P3.1(TASK-1) (Gene ID 16527), K2P9.1(TASK-3) (Gene ID 223604), and K2P18.1(TRESK) (Gene ID 332396) in pGEMHE/pMO, were used for Xenopus oocyte experiments as previously described.[10],[26] Murine K2P2.1(TREK-1) (Gene ID 16526) was expressed in HEK-293 cells using a pIRES-EGFP construct as previously described.[26] Murine K2P13.1(THIK-1) (Gene ID 217826) and K2P1.1(TWIK-1) (Gene ID 16525) were cloned into pGEMHE/pMO for use in Xenopus oocytes. Chimeras were designed using EMBOSS Needle pairwise sequence alignment tool[58] to match homologous helices in K2P2.1(TREK-1) and K2P4.1(TRAAK) and were assembled using the Gibson assembly method.[59] Chimera boundaries are Thr152 (TREK-1/AAK M2-C), Trp199 (TREK-1/AAK M3-C), Y272 (TREK-1/AAK M4-C), Thr114 (TRAAK/EK-1 M2-C), Trp161 (TRAAK/EK-1 M3-C), and Tyr234 K2P4.1(TRAAK). All sequences were verified using DNA sequencing.
# Xenopus laevis oocytes were harvested in accordance with UCSF IACUC protocol AN129690 and digested in calcium-free ND-96 (96 mM NaCl, 2 mM KCl, 3.8 mM MgCl2) immediately following harvest, as previously described.[6],[10] Digested oocytes were maintained in standard ND96 (96 mM NaCl, 2 mM KCl, 1.8 mM CaCl2, 2 mM MgCl2) with antibiotics (100 units mL^–1 penicillin, 100 μg mL^–1 streptomycin, 50 μg mL^–1 gentimycin). Defolliculated stage V–VI oocytes were injected with 0.2–6.0 ng of mRNA in 50 nL, and currents were recorded 24–48 h after injection. mRNA was synthesized from plasmid DNA using mMessage mMachine Kit (T7 promoter, Ambion, Life Technologies) and purified using RNEasy Kit (Qiagen). Injected oocytes were impaled with two standard microelectrodes (0.2–1.0 MΩ) filled with 3 M KCl and subjected to constant perfusion of standard ND96 during recording. Currents were amplified using the GeneClamp 500B (MDS Analytical Technologies) amplifier controlled by the pClamp software (Molecular Devices). Data were digitized at 1 kHz using Digidata 1332A (MDS Analytical Technologies). For all experiments with small molecules, basal currents were evoked using 1 s long ramps from −150 to +50 mV under constant perfusion of ND96. Once stabilized basal currents were recorded, compounds were perfused at various concentrations in standard ND96 and currents were allowed to increase to stabilization before recording final current. Fold activation upon compound application is expressed as I/I0 (0 mV), derived from the current at 0 mV in the presence of compound divided by the basal current at 0 mV in standard ND96 without compound. Data were analyzed and plotted using Graphpad Prism Version 5 (GraphPad Software, San Diego California USA, www.graphpad.com). […] In the case of BL-1249-acid EC50 estimation, upper bound of I/I0 was set to 20 to account for the strong stimulation of BL-1249-acid.
# K2P1.1(TWIK-1) = target: T2, K2P1.1(TWIK-1) (Mus musculus, UniProt O08581); assay: TEVC of K2P1.1(TWIK-1) in Xenopus oocytes; format: cell-based; conditions: concentrations up to the solubility limit (∼80 μM)
# T2 construct: expressed in transfected cells; host or cells: Xenopus laevis oocytes injected with mRNA made from pGEMHE/pMO
# Experimental: BL-1249 activates K2P2.1(TREK-1)[18],[40] and K2P10.1(TREK-2),[7] but its effects on other K2P channels have not been characterized. […] In order to test if the original 10 μM assay had missed BL-1249 effects in other K2P channels, we tested concentrations of BL-1249 up to the solubility limit (∼80 μM) against the other K2P subfamily representatives. […]
# as §1, with “current. Fold activation upon compound application is expressed as I/I0 (0 mV), derived from the current at 0 mV in the presence of compound divided by the basal current at 0 mV in standard ND96 without compound. Data were analyzed and plotted using Graphpad Prism Version 5 (GraphPad Software, San Diego California USA, www.graphpad.com).” for “current.”
# TREK-1/AAK M2-C = TREK-1/AAK M2-C (Mus musculus, UniProt O88454+P97438); assay: TEVC of chimera TREK-1/AAK M2-C; format: cell-based; conditions: Xenopus oocytes
# Chain of TREK-1/AAK M2-C (P97438 16-167, one chain of several): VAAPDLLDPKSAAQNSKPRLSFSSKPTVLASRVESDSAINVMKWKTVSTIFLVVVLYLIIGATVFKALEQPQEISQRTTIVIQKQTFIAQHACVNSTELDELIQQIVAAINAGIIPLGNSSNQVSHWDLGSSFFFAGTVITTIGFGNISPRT
# Chain of TREK-1/AAK_T (P97438 1-292 isoform P97438-2 limits assumed): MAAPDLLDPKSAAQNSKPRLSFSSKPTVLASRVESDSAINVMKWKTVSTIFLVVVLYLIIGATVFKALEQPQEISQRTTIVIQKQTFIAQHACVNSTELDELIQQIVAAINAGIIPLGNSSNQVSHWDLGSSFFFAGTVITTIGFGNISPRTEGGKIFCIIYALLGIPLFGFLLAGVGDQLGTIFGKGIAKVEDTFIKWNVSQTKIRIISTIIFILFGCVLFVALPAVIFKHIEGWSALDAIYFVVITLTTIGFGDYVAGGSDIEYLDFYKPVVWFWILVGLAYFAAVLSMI
# T2 sequence (O08581 whole entry): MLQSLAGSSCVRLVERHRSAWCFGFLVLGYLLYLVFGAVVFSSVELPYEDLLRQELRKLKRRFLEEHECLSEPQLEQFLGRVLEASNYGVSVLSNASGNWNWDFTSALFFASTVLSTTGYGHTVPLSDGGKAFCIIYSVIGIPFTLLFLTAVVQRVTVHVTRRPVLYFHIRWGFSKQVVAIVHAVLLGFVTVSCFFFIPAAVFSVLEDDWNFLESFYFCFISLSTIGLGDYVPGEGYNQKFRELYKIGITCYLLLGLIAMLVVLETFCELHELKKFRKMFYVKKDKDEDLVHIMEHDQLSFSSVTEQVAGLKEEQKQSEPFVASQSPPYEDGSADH
Structure (SMILES),EC50 (TREK-1/AAK_T) [µM],functional effect on K2P18.1(TRESK) (K2P18.1(TRESK)),selectivity for K2P2.1(TREK-1) and K2P10.1(TREK-2) over K2P4.1(TRAAK) (EC50) (K2P4.1(TRAAK)) [fold],K2P4.1(TRAAK) current response (K2P4.1(TRAAK); 10 μM),"EC50 (K2P4.1(TRAAK); saturation not reached (solubility limit), fit with upper boundary of 15 (I/I0)) [µM]",activation of K2P1.1(TWIK-1) (K2P1.1(TWIK-1)),EC50 (TREK-1/AAK M2-C) [µM]
"c1ccc(-c2nnn[nH]2)c(Nc2cccc3c2CCCC3)c1 [BL-1249, (5,6,7,8-tetrahydro-naphthalen-1-yl)-[2-(1H-tetrazol-5-yl)-phenyl]-amine]",7.7 ± 0.6,activator,~10,weakly stimulated,48 ± 10,failed to find evidence for activation,
CS(=O)(=O)Nc1ccc(C(=O)NCc2ccc(Cl)cc2Cl)cc1 [ML335],,,,,,,> 100
